Measurements: patent publication US10472324B2, “2-cyano-3-cyclopropyl-3-hydroxy-N-aryl-thioacrylamide derivatives” (Algiax Pharmaceuticals GmbH, priority 2014, dated 2019)

Legend:
[1] = molecular target: GABA gated Cl-channel (GABA.A receptor complex); assay: GABAA receptor binding assay ([35S]TBPS radioligand); settings: 3 nM [35S]TBPS, rat cerebral cortex membrane homogenates, 120 min at 22° C.
Procedure: GABAA Receptor Binding Assay:
The affinity of the test compounds for the GABA gated Cl-channel (GABA.A receptor complex) in the rat cerebral cortex was determined in a radioligand binding assay (Lewin et al,. 1989). Membrane homogenates of cerebral cortex are incubated for 120 min at 22° C. with 3 nM [35S]TBPS (-t-butylbicyclophosphoorothionate) in the presence and absence of the test compound.
Following incubation, the samples are filtered rapidly under vacuum through glass fiber filters and rinsed several times with ice-cold buffer using a 96-sample cell harvester. The filters are dried then counted for radioactivity in a scintilliation counter using a scintillation cocktail (Microscint 0, Packard). Each compound was tested at several concentrations to calculate the IC50 values of the affinity to the GABA.A receptor complex in cerebral cortex of rats.

[2] = molecular target: human GABAA α3β3γ2 (Homo sapiens (Human), UniProt P18507+P28472+P34903); assay: Patch clamp electrophysiology, positive modulation, HEK293 cells expressing GABAA α3β3γ2; format: cell-based; settings: GABA EC20 current = 100%
human GABAA α3β3γ2, sequence (P34903 29-492): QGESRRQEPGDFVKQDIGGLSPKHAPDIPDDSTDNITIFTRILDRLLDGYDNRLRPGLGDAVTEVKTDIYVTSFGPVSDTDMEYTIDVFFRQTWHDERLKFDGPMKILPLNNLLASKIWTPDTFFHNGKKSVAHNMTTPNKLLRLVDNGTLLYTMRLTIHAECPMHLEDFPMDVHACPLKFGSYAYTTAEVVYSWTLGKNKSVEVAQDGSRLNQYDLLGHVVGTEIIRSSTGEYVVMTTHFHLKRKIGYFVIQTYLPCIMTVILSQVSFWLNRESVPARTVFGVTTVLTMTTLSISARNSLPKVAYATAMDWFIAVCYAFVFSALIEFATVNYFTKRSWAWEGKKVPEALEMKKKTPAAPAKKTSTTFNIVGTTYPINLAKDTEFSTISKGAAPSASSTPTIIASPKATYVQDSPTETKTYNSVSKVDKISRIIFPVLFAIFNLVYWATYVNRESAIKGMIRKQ
human GABAA α3β3γ2, sequence (P28472 26-473): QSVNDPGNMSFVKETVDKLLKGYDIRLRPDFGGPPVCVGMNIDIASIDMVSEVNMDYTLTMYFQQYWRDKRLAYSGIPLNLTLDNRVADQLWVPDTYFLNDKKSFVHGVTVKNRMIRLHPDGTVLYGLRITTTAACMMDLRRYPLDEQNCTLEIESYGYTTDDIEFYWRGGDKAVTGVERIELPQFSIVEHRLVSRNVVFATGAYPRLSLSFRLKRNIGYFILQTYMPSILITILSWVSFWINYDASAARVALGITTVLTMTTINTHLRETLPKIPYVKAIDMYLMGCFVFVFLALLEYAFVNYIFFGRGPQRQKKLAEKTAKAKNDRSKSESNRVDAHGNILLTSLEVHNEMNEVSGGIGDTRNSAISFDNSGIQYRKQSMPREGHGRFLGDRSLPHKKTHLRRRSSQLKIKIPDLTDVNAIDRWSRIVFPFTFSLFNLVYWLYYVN
human GABAA α3β3γ2, sequence (P18507 40-475): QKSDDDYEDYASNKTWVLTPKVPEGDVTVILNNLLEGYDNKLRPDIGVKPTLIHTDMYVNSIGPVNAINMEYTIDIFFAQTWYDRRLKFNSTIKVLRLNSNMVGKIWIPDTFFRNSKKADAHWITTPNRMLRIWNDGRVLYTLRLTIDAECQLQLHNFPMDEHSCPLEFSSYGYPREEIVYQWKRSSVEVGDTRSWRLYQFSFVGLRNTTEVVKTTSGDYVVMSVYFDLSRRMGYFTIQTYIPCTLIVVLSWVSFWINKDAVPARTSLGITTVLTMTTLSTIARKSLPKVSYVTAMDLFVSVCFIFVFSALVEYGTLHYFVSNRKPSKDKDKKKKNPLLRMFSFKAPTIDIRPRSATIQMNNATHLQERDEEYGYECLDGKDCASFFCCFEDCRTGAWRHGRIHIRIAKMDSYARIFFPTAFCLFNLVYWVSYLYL
From the text: (§1) Electrophysiological assays on different subunit combinations of the human GABAA receptor complex.
(§2) The functional positive modulation activity of the test compounds were investigated by using patch clamp techniques on HEK293 cells stably expressing different subunit combinations of the human GABAA receptor complex. In brief, the peak inward currents in response to the GABA (natural ligand of the GABAA receptors) additions in the presence of increasing concentrations of test compound were measured. To calculate the positive modulation activity the mean effect of GABA (EC20 concentration) was set to 100%.
(§3) A value of 100 percent equates to the compound having an effect equivalent to the addition of the EC20 concentration of GABA.

[3] = molecular target: human GABAA α2β3γ2 (Homo sapiens (Human), UniProt P18507+P28472+P47869); assay: Patch clamp electrophysiology, positive modulation, HEK293 cells expressing GABAA α2β3γ2; format: cell-based; settings: GABA EC20 current = 100%
human GABAA α2β3γ2, sequence (P47869 29-451): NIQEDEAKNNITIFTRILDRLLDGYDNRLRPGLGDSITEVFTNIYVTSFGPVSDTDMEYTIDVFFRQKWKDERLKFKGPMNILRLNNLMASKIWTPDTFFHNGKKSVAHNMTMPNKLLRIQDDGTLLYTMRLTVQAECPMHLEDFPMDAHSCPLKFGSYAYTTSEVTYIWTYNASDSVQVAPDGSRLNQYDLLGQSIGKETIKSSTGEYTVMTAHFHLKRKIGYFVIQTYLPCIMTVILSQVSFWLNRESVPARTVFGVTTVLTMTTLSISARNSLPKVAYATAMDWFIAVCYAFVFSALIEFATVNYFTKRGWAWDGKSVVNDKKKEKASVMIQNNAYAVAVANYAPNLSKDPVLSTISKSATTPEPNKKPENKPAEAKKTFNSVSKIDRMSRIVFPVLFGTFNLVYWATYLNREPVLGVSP
human GABAA α2β3γ2, sequence (P28472 26-473): as the sequence (P28472 26-473) above
human GABAA α2β3γ2, sequence (P18507 40-475): as the sequence (P18507 40-475) above
From the text: as §1, §2, §3

[4] = molecular target: human GABAA α1β3γ2 (Homo sapiens (Human), UniProt P14867+P18507+P28472); assay: Patch clamp electrophysiology, positive modulation, HEK293 cells expressing GABAA α1β3γ2; format: cell-based; settings: GABA EC20 current = 100%
human GABAA α1β3γ2, sequence (P14867 28-456): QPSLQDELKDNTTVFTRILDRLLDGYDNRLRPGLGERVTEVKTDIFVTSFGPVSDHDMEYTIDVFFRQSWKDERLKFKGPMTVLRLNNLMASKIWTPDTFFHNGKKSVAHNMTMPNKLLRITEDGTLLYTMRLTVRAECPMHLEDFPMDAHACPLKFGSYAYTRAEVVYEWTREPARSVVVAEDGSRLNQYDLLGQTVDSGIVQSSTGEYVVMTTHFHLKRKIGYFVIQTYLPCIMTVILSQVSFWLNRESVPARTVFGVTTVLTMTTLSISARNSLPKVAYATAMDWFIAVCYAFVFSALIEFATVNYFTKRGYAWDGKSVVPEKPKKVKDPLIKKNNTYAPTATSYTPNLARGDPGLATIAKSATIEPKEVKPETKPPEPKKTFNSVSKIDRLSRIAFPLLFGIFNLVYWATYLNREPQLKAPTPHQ
human GABAA α1β3γ2, sequence (P28472 26-473): as the sequence (P28472 26-473) above
human GABAA α1β3γ2, sequence (P18507 40-475): as the sequence (P18507 40-475) above
From the text: as §1, §2, §3

[5] = tested on: neuropathic pain induced by spinal nerve ligation (SNL) injury; assay: SNL model or Chung model for peripheral neuropathic pain, mechanical allodynia (von Frey); format: in vivo, rat; settings: for reversal of neuropathic pain induced by spinal nerve ligation: 10 mg/kg oral gavage for 5 days, rat; for 50% paw withdrawal threshold: cut-off 60 g
Procedure: SNL model or Chung model as in vivo model for peripheral neuropathic pain
Surgery was performed according to the method of Chung et al., 2004 (see List of References). In brief, animals are anesthetized and the hair on their backs is trimmed. Under sterile conditions, a longitudinal incision is made at the lower lumbar and sacral levels, exposing the paraspinal muscles on the left. Connective tissues and muscles are removed by a small scraper, after which bony structures become visible. The L6 vertebra left transverse process of animal was first removed to expose the L4 and L5 spinal nerves. The L5 spinal nerve was then carefully isolated and tightly ligated with 6-0 silk thread. Surgery was always performed on the left leg (Ipsilateral paw), the right leg (contralateral paw) remained intact and served as a control. On completion of the operation, hemostasis is confirmed and the muscles are sutured in layers using silk thread and the skin is closed with metal clips, anesthesia is then discontinued. Axonal degeneration occurs, with all types of axons being approximately equally affected. Pronounced mechanical allodynia follows, accompanied by spontaneous pain behaviors, which lasts for several weeks without recovery. Mechanical allodynia is typically assessed beginning 1-2 weeks post-surgery.
(§4) Mechanical allodynia thresholds were determined according to the methods described by Chaplan and colleagues (Chaplan et al., 1994). At the designated post-operative time points the injured rats were placed in an elevated clear-plastic, wire mesh-bottomed cage. After a 10- to 15-min acclimation period, eight von Frey filaments (Stoelting, Wood Dale, Ill.) with bending forces ranging from 2 to 60 g were used to determine the 50% mechanical threshold for paw withdrawal using the up-and-down method.
After spinal nerve ligation (SNL) injury, individual rats were randomly assigned into a treatment group. The following groups were used:
Group 2: SNL+ Example 1 (10 mg/kg) in vehicle by oral gavage for 5 days from DPO7 (pre-treat) till DPO12.
Group 3: SNL+ Example 2 (10 mg/kg) in vehicle by oral gavage for 5 days from DPO7 (pre-treat) till DPO12.
Group 2: SNL+ Example 3 (10 mg/kg) in vehicle by oral gavage for 5 days from DPO14 till DPO19.
Group 3: SNL+ Example 4 (10 mg/kg) in vehicle by oral gavage for 5 days from DPO14 till DPO19.
Group 4: SNL+ Example 6 (10 mg/kg) in vehicle by oral gavage for 5 days from DPO14 till DPO19.

[6] = tested on: acute pain induced by capsaicin injection in the hindpaw; assay: Capsaicin induced pain model for acute pain, mechanical allodynia (von Frey); format: in vivo, rat; settings: for reversal of acute pain induced by capsaicin injection: 1 or 10 mg/kg oral gavage, rat hindpaw
Procedure: as §4
Capsaicin induced pain as in vivo model for acute pain
Rats were gently restrained and capsaicin (10 μg in 10 μI of 10% Tween80) in saline was injected into the plantar surface of the hindpaw using a 0.3 ml insulin syringe with a 29-gauge needle (Terumo Europe, Belgium).
After injection of Capsaicin, individual rats were randomly assigned into a treatment group. The following groups were used:
Group 2: Capsaicin injection+ Example 1 (1 mg/kg) in vehicle by oral gavage about 40 minutes after injection.
Group 3: Capsaicin injection+ Example 3 (1 mg/kg) in vehicle by oral gavage about 40 minutes after injection.
Group 2: Capsaicin injection+ Example 2 (10 mg/kg) in vehicle by oral gavage about 40 minutes after injection.
Group 3: Capsaicin injection+ Example 6 (10 mg/kg) in vehicle by oral gavage about 40 minutes after injection.

[7] = Experiment 1, 10 mg/kg oral gavage 5 days DPO7-DPO12, at DPO35 (end of experiment)
[8] = Experiment 1, 1 mg/kg oral gavage about 40 minutes after capsaicin, 150 minutes after capsaicin injection
[9] = Experiment 1, 1 mg/kg oral gavage about 40 minutes after capsaicin, 210 minutes after capsaicin injection
[10] = Experiment 2, 10 mg/kg oral gavage 5 days DPO14-DPO19, at DPO21
[11] = Experiment 2, 10 mg/kg oral gavage about 40 minutes after capsaicin, 150 minutes after capsaicin injection
[12] = Experiment 2, 10 mg/kg oral gavage about 40 minutes after capsaicin, 210 minutes after capsaicin injection
[13] = Experiment 2, 10 mg/kg oral gavage 5 days DPO14-DPO19, after DPO21 till end of experiment at DPO35

| Structure (SMILES) | IC50 [1] | GABAA α3β3γ2 normalized percent current ([2]; 10 μM test compound) | GABAA α2β3γ2 normalized percent current ([3]; 10 μM test compound) | GABAA α1β3γ2 normalized percent current ([4]; 10 μM test compound) | reversal of neuropathic pain induced by spinal nerve ligation [5] | reversal of acute pain induced by capsaicin injection [6] | 50% paw withdrawal threshold [5, 10] | other results |
| --- | --- | --- | --- | --- | --- | --- | --- | --- |
| Cc1cc(NC(=S)C(C#N)=C(O)C2CC2)ccc1C(F)(F)F [Example 1, 2-Cyano-3-cyclopropyl-3-hydroxy-N-(3-methyl-4-trifluormethyl-phenyl)-thioacrylamide] | 5.3 µM | 697% | 614% | 792% | can reverse neuropathic pain | can reverse acute pain |  | 50% paw withdrawal threshold [5, 7]: 30 g; 50% paw withdrawal threshold [6, 8]: 30 g; 50% paw withdrawal threshold [6, 9]: ~50 g |
| Cc1cc(NC(=S)C(C#N)=C(O)C2CC2)ccc1C#N [Example 6, 2-Cyano-N-(4-cyano-3-methyl-phenyl)-3-cyclopropyl-3-hydroxy-thioacrylamide] | 7.9 µM | 357% | 286% | 338% | can reverse neuropathic pain | can reverse acute pain | ~40 g | 50% paw withdrawal threshold [6, 11]: 35 g; 50% paw withdrawal threshold [6, 12]: 25 g |
| N#CC(C(=S)Nc1ccc(SC(F)(F)F)cc1)=C(O)C1CC1 [Example 5, 2-Cyano-3-cyclopropyl-3-hydroxy-N-(4-trifluoromethylsulfanyl-phenyl)-thioacrylamide] | 7.7 µM | 315% | 453% | 707% |  |  |  |  |
| N#CC(C(=S)Nc1ccc([S+]([O-])C(F)(F)F)cc1)=C(O)C1CC1 (stereo not shown) [Example 8, 2-Cyano-3-cyclopropyl-3-hydroxy-N-(4-trifluoromethanesulfinyl-phenyl)-thioacrylamide] | 10.3 µM |  |  |  |  |  |  |  |
| N#CC(C(=S)Nc1ccc([N+](=O)[O-])cc1)=C(O)C1CC1 [Example 4, 2-Cyano-3-cyclopropyl-3-hydroxy-N-(4-nitro-phenyl)-thioacrylamide] | 8.7 µM |  |  |  | can reverse neuropathic pain |  | ~50 g | 50% paw withdrawal threshold [5, 13]: 30 g |
| N#CC(C(=S)Nc1ccc(S(=O)(=O)C(F)(F)F)cc1)=C(O)C1CC1 [Example 9, 2-Cyano-3-cycopropyl-3-hydroxy-N-(4-trifluoromethanesulfonyl-phenyl)-thioacrylamide] | 5 µM | 328% | 259% | 286% |  |  |  |  |
| N#CC(C(=S)Nc1ccc(C#N)cc1)=C(O)C1CC1 [Example 7, 2-Cyano-N-(4-cyano-phenyl)-3-cyclopropyl-3-hydroxy-thioacrylamide] | 9.6 µM |  |  |  |  |  |  |  |
| Cc1cc(NC(=S)C(C#N)=C(O)C2CC2)ccc1F [Example 2, 2-Cyano-3-cyclopropyl-N-(4-fluoro-3-methyl-phenyl)-3-hydroxy-thioacrylamide] | 8.3 µM |  |  |  | can reverse neuropathic pain | can reverse acute pain |  | GABAA α3β3γ2 normalized percent current ([2]; 50 μM test compound): 835%; GABAA α2β3γ2 normalized percent current ([3]; 50 μM test compound): 470%; GABAA α1β3γ2 normalized percent current ([4]; 50 μM test compound): 734%; 50% paw withdrawal threshold ([5]; Experiment 1, 10 mg/kg oral gavage 5 days DPO7-DPO12, at DPO21): 40 g; 50% paw withdrawal threshold [5, 7]: 40 g; 50% paw withdrawal threshold [6, 11]: ~40 g; 50% paw withdrawal threshold [6, 12]: ~33 g |
| Cc1cc(NC(=S)C(C#N)=C(O)C2CC2)ccc1[N+](=O)[O-] [Example 3, 2-Cyano-3-cyclopropyl-3-hydroxy-N-(3-methyl-4-nitro-phenyl)-thioacrylamide] | 6 µM |  |  |  | can reverse neuropathic pain | can reverse acute pain | about 35 g | GABAA α3β3γ2 normalized percent current ([2]; 50 μM test compound): 469%; GABAA α2β3γ2 normalized percent current ([3]; 50 μM test compound): 380%; GABAA α1β3γ2 normalized percent current ([4]; 50 μM test compound): 424%; 50% paw withdrawal threshold [5, 13]: 23 to 25 g; 50% paw withdrawal threshold [6, 8]: 40 g; 50% paw withdrawal threshold [6, 9]: ~50 g |
